This is an account of results in PubChem BioAssay AID179 (DTP/NCI, 2004).

The assay relates to CEM cells HIV-1 protection, formazan growth assay. The assay is described as follows: NCI AIDS Antiviral Assay. To be noted: for pIC50: measured here: growth of uninfected CEM cells. A digest of the protocol: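 Protection of CEM cells against HIV-1 was scored from cell growth (soluble formazan) across five concentrations, with parallel uninfected cells. Lack of protection may reflect toxicity.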

pEC50, pIC50: −log10 of the molar value. Calls of active or inactive are those of the source.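 The calls were made as follows: active = compounds giving half or more protection of infected cells from virus-caused growth loss, again on retest; inactive = the rest.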 Bounds are passed on as bounds.

As usually defined, the pEC50 is the negative decadic logarithm of the EC50, by convention in mol/L. A word on the pIC50: it is the negative decadic logarithm of the IC50, by convention in mol/L. Low readings indicate a large IC50, high ones a small IC50. Regarding `Cc1nn(C(=O)c2ccncc2)c2c1C(c1ccccc1O)SC(N)=N2` (stereo not drawn), the pEC50 was 4.07 and the pIC50 was 3.83. For the compound `CC(C)=CCc1[nH]c2ccccc2c1C1=C(O)C(=O)C(c2c(CC=C(C)C)[nH]c3ccccc23)=C(O)C1=O`, the pEC50 is less than 3.70 and the pIC50 is 5.76. For `C/C(C=O)=C\c1ccc(N(C)C)cc1`, in that order: less than 4.42 and less than 4.42.

Turning to `O=C(O)CCNS(=O)(=O)c1ccc(NC(=O)c2ccccc2)cc1`, the result was inactive. Take `COC(=O)c1ccccc1OCc1cc(=O)oc2ccc(C)cc12`: the result was inactive. `c1ccc2c(c1)C(=NCCCN1CCCCCCC1)c1cccn1-2`: the pEC50 was less than 3.70 and the pIC50 was 4.32. In the same order, the values of `C/C(=N\NC(=O)CCSCCC(=O)N/N=C(\C)c1ccc(OS(C)(=O)=O)cc1)c1ccc(OS(C)(=O)=O)cc1` are less than 3.70 and less than 3.70. Turning to `Cc1cn(Cc2ccccc2CCO)c(=O)[nH]c1=O`, the pEC50 is 3.72 and the pIC50 was 3.32. In the same order, the values of `COC1(O)C(=O)c2ccccc2OC1(OC)c1ccccc1` (stereo not drawn) are less than 3.70 and 3.95. As for `Nc1cn2ncnc2c(=O)[nH]1`, the pEC50 is less than 3.76 and the pIC50 was less than 3.76. With `CC(C)(c1ccc(Oc2ccc(C#N)c(C#N)c2)cc1)c1ccc(Oc2ccc(C#N)c(C#N)c2)cc1`, the pEC50 was less than 4.97 and the pIC50 was less than 4.97. On to `CC(C)CC(NC(=O)C(CI)Cc1ccccc1)C(=O)Nc1ccccc1` (stereo not drawn), for which the pEC50 is less than 4.00 and the pIC50 is less than 4.00. As to `Cc1cc(O)c(C=NC(=S)c2ccncc2)c(=O)o1`, the pEC50 is less than 3.70 and the pIC50 was less than 3.70. Take `Oc1ccccc1C(Nc1nc2ccccc2s1)c1ccc2cccnc2c1O` (stereo not drawn): the pEC50 is less than 4.47 and the negative-log IC50 (pIC50) was 5.59. For `Cc1ccc(C)c(C(=O)c2ccccc2C(=O)O)c1`, in that order: less than 3.70 and less than 3.70.

Consider `CCOc1cc2c[n+](C)c3c4cc(OC)c(OC)cc4ccc3c2cc1OC`, for which the pEC50 was less than 4.48 and the pIC50 was less than 4.48. Regarding `COc1ccc(/C=C/C(=O)Oc2ccccc2OC)cc1`, the pEC50 was less than 3.70 and the pIC50 is 6.40. On to `CNC(=O)Nn1c(SC)nc2ccccc21`, for which the pEC50 is less than 3.70 and the pIC50 was less than 3.70.

In the case of `O=C1c2ccc(O)c(O)c2C(=O)c2c(O)ccc(O)c21`, the pEC50 was less than 4.20 and the pIC50 was 4.93.

For the compound `Cc1noc(/N=C2\C=C(Nc3onc(C)c3C)C(=O)c3ccccc32)c1C`, the pEC50 is less than 5.56 and the pIC50 is less than 5.56. Regarding `C=C1C(=O)OC2/C=C(\CO)C(OC(C)=O)CC(O)/C(C)=C/C(OC(=O)C(C)CC)C12` (stereo not drawn), the outcome was inactive. The same measure, in the same setting: the same measure for `Cc1ccc(Sc2ccccc2[N+](=O)[O-])cc1`: “inactive”. Turning to `O=S(=O)(F)c1cccc(Cl)c1C[P+](c1ccccc1)(c1ccccc1)c1ccccc1`, the pEC50 was less than 3.70 and the pIC50 is 4.59.

With `O=[N+]([O-])C(C(Cl)=C(Cl)Cl)=C(N1CCCCC1)N1CCCCC1`, the pEC50 is less than 3.70 and the pIC50 is 3.73. Regarding `CCCCCCCCCCCCCCCC[N+](C)(C)Cc1ccccc1`, the pEC50 is less than 3.70 and the negative logarithm of the IC50 (pIC50) is 5.48.

As for `O=C(NC(=O)c1cn(CCN2CCNCC2)c(=O)[nH]c1=O)OCc1ccccc1`, the result was inactive. As for `Cc1cccc(Nc2nc3ccccc3nc2NS(=O)(=O)c2ccccc2)c1`, the pEC50 is less than 4.00 and the negative-log IC50 (pIC50) is 4.81. For `O=C(CN1CCN(c2cccc(Cl)c2)CC1)N1CCc2c([nH]c3ccccc23)C1c1cccnc1` (stereo not drawn), in that order: less than 5.67 and less than 5.67. Take `CN(C)CCN(C)CCC(=O)/C=C/c1ccccc1`: the outcome was inactive. Regarding `CC(C)[Si](OCC1CC(C#N)OC(C)(C)O1)(C(C)C)C(C)C` (stereo not drawn), the pEC50 is less than 3.70 and the pIC50 was 3.97. For `Cc1cc2nc(C=C(C(F)(F)F)C(F)(F)F)sc2cc1C`, in that order: less than 4.70 and 5.44.

Regarding `CC(=O)OC1Sc2ccccc2C(=O)N2CCCC12` (stereo not drawn), the pEC50 was less than 3.70 and the pIC50 is less than 3.70. `CC(=O)CCC(NC(C)=O)(C(=O)O)C(=O)O`: the pEC50 is less than 3.70 and the pIC50 is less than 3.70.

Take `CC(C)(C)Cc1cc(O)ccc1O`: the pEC50 is less than 5.22 and the pIC50 was 5.47. Consider `CC1c2c(cc(=O)n(Cc3ccccc3)c2O)C(=O)N1C` (stereo not drawn), for which the pEC50 is less than 3.90 and the pIC50 is 3.95. For the compound `CCc1c([N+](=O)[O-])cc2c(c1[N+](=O)[O-])C(C)(C)CCC2C` (stereo not drawn), the pEC50 was less than 3.70 and the negative-log IC50 (pIC50) is 4.84. For `COC12COC(=O)C1C(c1ccc3c(c1)OCO3)c1cc3c(cc1O2)OCO3` (stereo not drawn), in that order: less than 3.70 and 5.04. Consider `C/C(CN1C(=O)c2ccccc2C1=O)=N\NS(=O)(=O)c1ccc2ccccc2c1`, for which the pEC50 is less than 3.35 and the pIC50 was less than 3.35. On to `CCCN(CCCC(NC(C)=O)C(=O)NCc1ccccc1)C(=O)NC` (stereo not drawn), for which the pEC50 was less than 3.16 and the pIC50 is less than 3.16. Turning to `CCCCCC(/C=C/[C@@H]1[C@@H](C(O)CCCCCC(=O)OC)C(=O)C[C@H]1O[Si](C)(C)C(C)(C)C)OCOCCOC` (stereo partly drawn), the outcome was inactive. Still for that read-out and setting: the same measure for `COc1cc2ccnc3c2c(c1OC)-c1ccccc1C3=O`: “inactive”; for `O=C1C(CN2CCCC2)CCC1CN1CCCC1` (stereo not drawn): “inactive”. In the case of `c1ccc(-c2nnc(CCCCCCCCc3nnc(-c4ccccc4)o3)o2)cc1`, the pEC50 is less than 3.70 and the pIC50 is 3.80. Regarding `CCC[CH2][Sn]([CH2]CCC)([O]c1cccc2cccnc12)[O]c1cccc2cccnc12`, the outcome was inactive.

Turning to `N#Cc1ccc(Oc2cccc(Oc3ccccc3)c2)cc1C#N`, the pEC50 is less than 4.36 and the pIC50 was less than 4.36. `COC(=O)c1cnn2c1n[n+]([O-])c1ccccc12`: the pEC50 is less than 3.70 and the pIC50 was less than 3.70.

As for `NC(=O)c1cc([N+](=O)[O-])cc([N+](=O)[O-])c1`, the pEC50 is less than 3.70 and the pIC50 was 4.39. For `COC(=O)/C=C1\C(CO[Si](C)(C)C(C)(C)C)OC(n2ccc(=O)[nH]c2=O)C1O` (stereo not drawn), the pEC50 is less than 3.70 and the pIC50 is 5.21. For `CCCC(C)SP(=S)(SC(C)CCC)SC(C)CCC` (stereo not drawn), in that order: less than 3.70 and less than 3.70. In the same order, the values of `CC1SC2(CC3CCC2(C)C3(C)C)OC1=O` (stereo not drawn) are less than 4.68 and less than 4.68.

`C/C(=N/NC(=S)Nc1cccc(C)c1)c1ccccn1`: the pEC50 was less than 6.70 and the pIC50 was 7.02. As to `CN(C)c1ccc(C=C2C(=O)N(c3ccccc3)N(c3ccccc3)C2=O)cc1`, the pEC50 is less than 4.00 and the negative-log IC50 (pIC50) is 4.16. For `Cc1nc2c(=O)[nH]c(=O)n(C)c2[nH]c1=O`, the pEC50 was less than 4.46 and the pIC50 is less than 4.46. Consider `COc1ccc(C(=O)N2CCc3c([nH]c4ccccc34)C2C(=O)O)o1` (stereo not drawn), for which the pEC50 was less than 4.40 and the pIC50 is 4.76.
